Results on 2 compounds are retold here after patent US4217274A, “Methoxyethoxymethyl esters of penicillins” (Bristol-Myers Company, priority 1978, dated 1980).

Usually MIC stands for the lowest concentration that inhibits growth of the organism.

Converted amounts (≈) assume the structure as drawn. Read-outs that look alike come from different tables or passages of the source.

Common to all, as to test: MIC, antibiotic dilution technique (agar)
One test relates to K. pneumoniae. The class given is cell-based. The conditions noted are these: Klebsiella pneumoniae, read-out: MIC. From the text: (§1) Bacteria. The organisms, preponderantly of recent clinical origin, were obtained from numerous sources of broad geographical distribution. Obligate anaerobes were maintained in Egg Meat Medium (Difco); Mycobacterium was stored on Lowenstein Medium (Jensen Modification; Difco). The techniques of storing all other organisms have been described previously [Leitner et al., BL-S640, A Cephalosporin with a Broad Spectrum of Antibacterial Activity: Properties in vitro, Antimicrob. Agents Chemother., 7, 298-305 (1975)].
(§2) Antibiotic spectrum. The growth-inhibitory activity of the compounds was determined by the antibiotic dilution technique. Procedures were as follows:
(§3) Aerobic organisms (excluding Mycobacterium). Except for Haemophilus and Neisseria, the assay was performed in Mueller-Hinton Medium (Difco). For fastidious organisms, i.e., Streptococcus, Listeria, Pasteurella, Bordetella and Vibrio, the medium was supplemented with 4% defibrinated sheep blood. The antibiotic susceptibility of Haemophilus and Neisseria was determined in GC Medium Base (BBL) supplemented with 1% Hemoglobin (BBL) and 1% Isovitalex (BBL).
(§4) Overnight broth cultures of an exponentially growing culture (Neisseria) served as the source of inoculum. A volume of approximately 0.003 ml. of the undiluted or diluted culture was applied to the surface of the antibiotic-containing agar plates with the inoculator of Steers et al., An Inocula Replicating Apparatus for Routine Testing of Bacterial Susceptibility to Antibiotics, Antibiot. Chemother., 9, 307-311, (1959). Cultures of Neisseria, Streptococcus pneumoniae, S. viridans and S. pyogenes were used without dilution; those of all other organisms were diluted 100-fold. The inoculum contained about 10^3 viable cells for Neisseria, 10^5 for S. pneumoniae and S. pyogenes, 10^6 for S. viridans and 10^4 for all other species.

The test system of another test is Pr. rettgeri. Type of test: cell-based. The settings on record: Providencia rettgeri.
Excerpt: as §1, §2, §3, §4

In a further test the test system is S. aureus Meth-Res. The class given is cell-based. The settings on record: Staphylococcus aureus.
Excerpt: as §1, §2, §3, §4

The next test has as its system S. aureus. Type of test: cell-based. The conditions noted are these: Staphylococcus aureus.
Excerpt: as §1, §2, §3, §4

Another test deals with Str. faecalis. Type of test: cell-based. The settings on record: Enterococcus faecalis.
Excerpt: as §1, §2, §3, §4

The test system of another test is E. Coli. The class given is cell-based. The conditions noted are these: Escherichia coli.
Excerpt: as §1, §2, §3, §4

The next test deals with S. aureus Pen-Res. The class given is cell-based. The settings on record: Staphylococcus aureus, read-out: MIC.
Excerpt: as §1, §2, §3, §4

Another test has as its system Pr. vulgaris. Type of test: cell-based. The settings on record: Proteus vulgaris.
Excerpt: as §1, §2, §3, §4

Another test relates to Str. pneumoniae. The class given is cell-based. The settings on record: Streptococcus pneumoniae.
Excerpt: as §1, §2, §3, §4

For another test, the system named is Ser. marcescens. Type of test: cell-based. The settings on record: Serratia marcescens.
Excerpt: as §1, §2, §3, §4

Another test relates to Ps. aeruginosa. The class given is cell-based. The settings on record: Pseudomonas aeruginosa, read-out: MIC.
Excerpt: as §1, §2, §3, §4

In a further test the test system is Ent. cloacae. Type of test: cell-based. The settings on record: Enterobacter cloacae, read-out: MIC.
Excerpt: as §1, §2, §3, §4

The next test relates to Pr. mirabilis. Type of test: cell-based. The conditions noted are these: Proteus mirabilis.
Excerpt: as §1, §2, §3, §4

The subject of a further test is Pr. morganii. The class given is cell-based. The conditions noted are these: Morganella morganii, read-out: MIC.
Excerpt: as §1, §2, §3, §4

Another test deals with Str. pyogenes. Type of test: cell-based, S. pyogenes. The conditions noted are these: Streptococcus pyogenes.
Excerpt: as §1, §2, §3, §4

For the compound `CC1(C)S[C@@H]2[C@H](N3C(=O)[C@@H](c4ccccc4)NC3(C)C)C(=O)N2[C@H]1C(=O)O` [Hetacillin, hetacillin], the MIC with K. pneumoniae (Table 1, K. pneumoniae, first line) stood at 63 µg/mL (≈ 162 µM); with K. pneumoniae (Table 1, K. pneumoniae, second line), 63 µg/mL (≈ 162 µM); in the test with Pr. rettgeri (Table 1, Pr. rettgeri) it was 8 µg/mL (≈ 20.5 µM); in the test on S. aureus Meth-Res. (Table 1, S. aureus Meth-Res.), 16 µg/mL (≈ 41.1 µM); against S. aureus (Table 1, S. aureus), 0.008 µg/mL (≈ 0.0205 µM); in the test on S. aureus (Table 1, S. aureus + 50% serum), 0.016 µg/mL. For the same compound, the MIC in the test on Str. faecalis (Table 1, Str. faecalis) came out at 0.13 µg/mL (≈ 0.334 µM); in the test with E. Coli (Table 1, E. Coli, first line), 1 µg/mL (≈ 2.57 µM); against E. Coli (Table 1, E. Coli, second line), 32 µg/mL (≈ 82.2 µM); in the test with S. aureus Pen-Res. (Table 1, S. aureus Pen-Res.), 125 µg/mL (≈ 321 µM); with Pr. vulgaris (Table 1, Pr. vulgaris), 0.06 µg/mL (≈ 0.154 µM); with Str. pneumoniae (Table 1, Str. pneumoniae), 4 ng/mL (≈ 0.0103 µM). Moreover, the MIC with Ser. marcescens (Table 1, Ser. marcescens) came to 16 µg/mL (≈ 41.1 µM); with Ps. aeruginosa (Table 1, Ps. aeruginosa, first line) it was 63 µg/mL (≈ 162 µM); in the test on Ps. aeruginosa (Table 1, Ps. aeruginosa, second line), 125 µg/mL (≈ 321 µM); in the test with Ent. cloacae (Table 1, Ent. cloacae, first line) it was 32 µg/mL (≈ 82.2 µM); in the test with Ent. cloacae (Table 1, Ent. cloacae, second line), 63 µg/mL (≈ 162 µM); in the test on Pr. mirabilis (Table 1, Pr. mirabilis), 0.03 µg/mL (≈ 0.077 µM). Moreover, the MIC amounted to 16 µg/mL (≈ 41.1 µM) in the test with Pr. morganii (Table 1, Pr. morganni) and 4 ng/mL (≈ 0.0103 µM) with Str. pyogenes (Table 1, Str. pyogenes).

Turning to `COCCOCOC(=O)[C@@H]1N2C(=O)[C@@H](N3C(=O)[C@@H](c4ccc(O)cc4)NC3(C)C)[C@H]2SC1(C)C` [RN-1493, Methoxyethoxymethyl Ester of Heta-Amoxicillin], the MIC in the test on K. pneumoniae (Table 2, K. pneumoniae, first line) is 63 µg/mL (≈ 128 µM); with K. pneumoniae (Table 2, K. pneumoniae, second line) it was 63 µg/mL (≈ 128 µM); with Pr. rettgeri (Table 2, Pr. rettgeri), 32 µg/mL (≈ 64.8 µM); with S. aureus Meth-Res. (Table 2, S. aureus Meth-Res.) it was 63 µg/mL (≈ 128 µM); in the test with S. aureus (Table 2, S. aureus) it was 0.06 µg/mL (≈ 0.122 µM); in the test on S. aureus (Table 2, S. aureus + 50% serum) it was 0.25 µg/mL. For the same compound, the MIC in the test on Str. faecalis (Table 2, Str. faecalis) was found to be 0.5 µg/mL (≈ 1.01 µM); in the test with E. Coli (Table 2, E. coli, first line), 2 µg/mL (≈ 4.05 µM); against E. Coli (Table 2, E. coli, second line), 63 µg/mL (≈ 128 µM); with S. aureus Pen-Res. (Table 2, S. aureus Pen-Res.), 125 µg/mL (≈ 253 µM); in the test on Pr. vulgaris (Table 2, Pr. vulgaris), 0.5 µg/mL (≈ 1.01 µM); in the test with Str. pneumoniae (Table 2, Str. pneumoniae), 4 ng/mL (≈ 0.0081 µM). The MIC against Ser. marcescens (Table 2, Ser. marcescens) is 32 µg/mL (≈ 64.8 µM); in the test with Ps. aeruginosa (Table 2, Ps. aeruginosa, first line), 63 µg/mL (≈ 128 µM); in the test with Ps. aeruginosa (Table 2, Ps. aeruginosa, second line), 63 µg/mL (≈ 128 µM); with Ent. cloacae (Table 2, Ent. cloacae, first line), 63 µg/mL (≈ 128 µM); in the test with Ent. cloacae (Table 2, Ent. cloacae, second line), 63 µg/mL (≈ 128 µM); against Pr. mirabilis (Table 2, Pr. mirabilis), 0.5 µg/mL (≈ 1.01 µM). Further, the MIC worked out at 16 µg/mL (≈ 32.4 µM) in the test with Pr. morganii (Table 2, Pr. morganii) and 8 ng/mL (≈ 0.0162 µM) in the test with Str. pyogenes (Table 2, Str. pyogenes).
